Laboratory results: US10708263B2, “Salts and pharmaceutical compositions thereof for the treatment of inflammatory disorders” (Galapagos N.V., priority 2014, dated 2020)
In brackets after ≈: the same amount, converted by molar mass. Counter-ions that a name gives are not always drawn.

Tests used:
[1] = Thermodynamic aqueous solubility by HPLC; assay type: physicochemical; settings: salt from Protocol 4
[2] = Salt stability and hygroscopicity evaluation; assay type: physicochemical; settings: for hygroscopicity of the salt: salt from Protocol 4; for stability of the salt: salt from Protocol 4, XRPD analysis
[3] = Dog bioavailability study; assay type: in vivo, beagle dogs
Experimental: The dogs are not fasted before dosing, and have free access to water. Every day of the treatment, a half food ration is provided after the T0 blood sampling, 8 to 17 min before treatment, and the second half ration is given just after dosing or 1 h after treatment for period 2. A 3 days washout period is ensured between treatments.
The capsule composition is described in Table XX below.
The capsules are administered orally with water (5-10 mL), to provide good oesophageal transit. Each animal is checked at least once daily.
Blood is collected from the jugular vein into lithium heparinised tubes at T0 (before food administration) and then at 1 h, 2 h, 4 h, 6 h, 8 h, 10 h, and 24 h post treatment.
Plasma is then obtained from blood by centrifugation (2500 g for 10 min at 4° C.), and stored at −20° C. until analysis.
After vortex mixing and centrifugation at 4° C., the supernatants are diluted with a 0.5 volume of HPLC grade water in a midi-eppendorf 96-well plate. The plate is sealed and shaken to ensure sample homogeneity prior to analysis.
Pharmacokinetic analysis is performed using WinNonlin™ software version 5.3, using concentrations from individual animals. Non-compartmental analysis is applied to determine the PK parameters (Cmax, Tmax, AUC0-last, t1/2, etc. . . . )
Concentrations below the limit of detection are set to zero for descriptive statistics and PK parameter calculations.

[4] = Solubility study in different solvents; assay type: physicochemical
Experimental: The supersaturated solution is then filtered and the concentration of product in the filtrate is determined using UV-spectrometry.
In water, the influence of the pH is adjusted to pH 2, pH 7, and pH 9. HCl and NaOH are used to adjust the pH.

[5] = tested on: MMP13 levels in human chondrosarcoma cell line SW1353; experiment: cells; settings: SW1353, 48 h, read-out: OSM/IL-1β signaling EC50
Experimental: The cells are seeded in 96 well plates at 15,000 cells/well in a volume of 120 μL DMEM (Invitrogen) containing 10% (v/v) FBS and 1% penicillin/streptomycin (InVitrogen) incubated at 37° C./5% CO2. Cells are preincubated with 15 μL of compound in M199 medium with 2% DMSO 1 hr before triggering with 15 μL OSM and IL-1P to reach 25 ng/mL OSM and 1 ng/mL IL-1β, and MMP13 levels are measured in conditioned medium 48 h after triggering. MMP13 activity is measured using an antibody capture activity assay. For this purpose, 384 well plates (NUNC, 460518, MaxiSorb black) are coated with 35 μL of a 1.5 μg/mL anti-human MMP13 antibody (R&D Systems, MAB511) solution for 24 hrs at 4° C. After washing the wells 2 times with PBS+0.05% Tween, the remaining binding sites are blocked with 100 μL 5% non-fat dry milk (Santa Cruz, sc-2325, Blotto) in PBS for 24 hr at 4° C. […] After incubation for 24 hrs at 37° C. fluorescence of the converted substrate is measured in a Perkin Elmer Wallac EnVision 2102 Multilabel Reader (wavelength excitation: 320 nm, wavelength emission: 405 nm). Percentage inhibition=((fluorescence determined in the presence of vehicle−fluorescence determined for sample with test compound present) divided by (fluorescence determined in the presence of vehicle−fluorescence determined for sample without trigger))*100.

[6] = oral capsules, on average and at the 2 capsule strengths, FIG. 10

Question: With `Cl.O=C(Nc1nc2cccc(-c3ccc(CN4CCS(=O)(=O)CC4)cc3)n2n1)C1CC1` [Compound 1 HCl salt] as the compound, how does the aqueous solubility [1] read?
Answer: Its aqueous solubility is 1900 µg/mL.

Question: What about the “hygroscopicity of the salt” value [2] of the same compound?
Answer: The value was “non-hygroscopic”.

Question: And the “stability of the salt” value [2]?
Answer: The value was “stable”.

Question: For `O=C(Nc1nc2cccc(-c3ccc(CN4CCS(=O)(=O)CC4)cc3)n2n1)C1CC1.O=C(O)/C=C\C(=O)O` [Compound 1 maleic acid salt], which solubility ([1]; water) is on record?
Answer: Its solubility is 400 µg/mL.

Question: And the “stability of the salt” value [2]?
Answer: The value was “stable”.

Question: For `O=C(O)/C=C\C(=O)O` [Compound 1 maleic acid salt], which “hygroscopicity of the salt” value [2] is on record?
Answer: Its value is “non-hygroscopic”.

Question: Which half-life ([3]; male, beagle, plasma, 10 mg/kg, single oral administration, range over both forms and both capsule strengths) does the source give for `O=C(Nc1nc2cccc(-c3ccc(CN4CCS(=O)(=O)CC4)cc3)n2n1)C1CC1` [Compound 1, cyclopropanecarboxylic acid {5-[4-(1,1-dioxo-thiomorpholin-4-ylmethyl)-phenyl]-[1,2,4]triazolo[1,5-a]pyridin-2-yl}-amide] here?
Answer: Its half-life is 4.43 to 8.96 h.

Question: What about the solubility ([4]; 0.01M HCl + 2.0% Tweet 80 (so in the source); presumably Tween 80), pH 2, aqueous with cosolvent or surfactant or cyclodextrin, thermodynamic from solid, 0.01M HCl + 2.0% Tweet 80, 20° C., read-out: Solubility) of the same compound?
Answer: Its solubility is 313 µg/mL.

Question: And the solubility ([4]; aqueous with cosolvent or surfactant or cyclodextrin, thermodynamic from solid, Acetonitrile/water (1/1), 20° C., read-out: Solubility)?
Answer: Its solubility is 1570 µg/mL (≈ 3690 µM).

Question: What about the solubility ([4]; aqueous with cosolvent or surfactant or cyclodextrin, thermodynamic from solid, HP-β-CD 40% pH 2, 20° C., read-out: Solubility) of the same compound?
Answer: Its solubility is 577 µg/mL (≈ 1360 µM).

Question: What about the solubility ([4]; aqueous with cosolvent or surfactant or cyclodextrin, thermodynamic from solid, HP-β-CD 40% pH 4, 20° C., read-out: Solubility) of the same compound?
Answer: The solubility was 520 µg/mL (≈ 1220 µM).

Question: What about the solubility ([4]; aqueous with cosolvent or surfactant or cyclodextrin, thermodynamic from solid, Water/ethanol 1/1, 20° C., read-out: Solubility) of the same compound?
Answer: Its solubility is 327 µg/mL (≈ 768 µM).

Question: What about the solubility ([4]; organic solvent or mixture, thermodynamic from solid, Acetone, 20° C., read-out: Solubility) of the same compound?
Answer: The solubility was 420 µg/mL (≈ 987 µM).

Question: What about the solubility ([4]; organic solvent or mixture, thermodynamic from solid, Acetonitrile, 20° C., read-out: Solubility) of the same compound?
Answer: The solubility was 605 µg/mL (≈ 1420 µM).

Question: What about the solubility ([4]; organic solvent or mixture, thermodynamic from solid, Acetonitrile/water (4/1), 20° C., read-out: Solubility) of the same compound?
Answer: The solubility was 3110 µg/mL (≈ 7310 µM).

Question: And the solubility ([4]; organic solvent or mixture, thermodynamic from solid, Dichloromethane, 20° C., read-out: Solubility)?
Answer: The solubility was 5660 µg/mL (≈ 13300 µM).

Question: What about the solubility ([4]; organic solvent or mixture, thermodynamic from solid, Ethanol, 20° C., read-out: Solubility) of the same compound?
Answer: The solubility was 151 µg/mL (≈ 355 µM).

Question: What about the solubility ([4]; organic solvent or mixture, thermodynamic from solid, Methanol, 20° C., read-out: Solubility) of the same compound?
Answer: Its solubility is 432 µg/mL (≈ 1020 µM).

Question: What about the solubility ([4]; organic solvent or mixture, thermodynamic from solid, PEG400, 20° C., read-out: Solubility) of the same compound?
Answer: The solubility was 1530 µg/mL (≈ 3600 µM).

Question: And the solubility ([4]; organic solvent or mixture, thermodynamic from solid, Propanol, 20° C., read-out: Solubility)?
Answer: Its solubility is 134 µg/mL (≈ 315 µM).

Question: And the solubility ([4]; organic solvent or mixture, thermodynamic from solid, Propylene glycol, 20° C., read-out: Solubility)?
Answer: The solubility was 464 µg/mL (≈ 1090 µM).

Question: And the solubility ([4]; organic solvent or mixture, thermodynamic from solid, Tetrahydrofuran, 20° C., read-out: Solubility)?
Answer: Its solubility is 740 µg/mL (≈ 1740 µM).

Question: What about the solubility ([4]; organic solvent or mixture, thermodynamic from solid, t-butyl methyl ether, 20° C., read-out: Solubility) of the same compound?
Answer: The solubility was under 2.39 µg/mL.

Question: What about the solubility ([4]; pH 2, simulated gastric fluid, thermodynamic from solid, 0.01M HCl, 20° C., read-out: Solubility) of the same compound?
Answer: The solubility was 288 µg/mL (≈ 677 µM).

Question: And the solubility ([4]; pH adjusted with HCl/NaOH, aqueous buffer, thermodynamic from solid, Water pH 2, 20° C., read-out: Solubility)?
Answer: Its solubility is 291 µg/mL (≈ 684 µM).

Question: And the solubility ([4]; pH adjusted with HCl/NaOH, aqueous buffer, thermodynamic from solid, Water pH 7, 20° C., read-out: Solubility)?
Answer: Its solubility is 4.32 µg/mL (≈ 10.2 µM).

Question: And the solubility ([4]; pH adjusted with HCl/NaOH, aqueous buffer, thermodynamic from solid, Water pH 9, 20° C., read-out: Solubility)?
Answer: Its solubility is 4.29 µg/mL (≈ 10.1 µM).

Question: What about the solubility ([4]; thermodynamic from solid, Water (purified), 20° C., read-out: Solubility) of the same compound?
Answer: Its solubility is 3.84 µg/mL (≈ 9.02 µM).

Question: And the EC50 [5]?
Answer: Its EC50 is 2240 nM.

Question: Which “in vivo exposure compared with Compound 1” value [3, 6] does the source give for `Cl.O.O.O.O=C(Nc1nc2cccc(-c3ccc(CN4CCS(=O)(=O)CC4)cc3)n2n1)C1CC1` [Compound 1.HCl.3H2O] here?
Answer: The value was “improved exposure”.

Question: What about the “rate of absorption compared with Compound 1” value [3, 6] of the same compound?
Answer: The value was “more rapidly absorbed”.

Question: And the solubility ([4]; 0.005M HCl, 20° C.)?
Answer: The solubility was 3100 µg/mL.
